Earlier results on two compounds are cited in patent US20070042999A1, “Phosphate derivatives of pharmaceutical products” (priority 2003, published 2007).

For series [1] the following is noted: in vivo.
The conditions of series [2]: administered orally.

For the compound `N[C@@H](Cc1cc(I)c(Oc2cc(I)c(O)c(I)c2)c(I)c1)C(=O)O` [Thyroxine, thyroxine], in series [1], the bioavailability is recorded as 50-80%.

Regarding `C[C@]12CC[C@H]3[C@@H](CCC4=CC(=O)CC[C@@]43C)[C@@H]1CC[C@@H]2O` [testosterone], the “fraction of the administered dose available in the active form” value in series [2] was “less than one sixth”.
